Data: ChEMBL document CHEMBL1201862, “PubChem BioAssay data set” (2004)
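Method: 48-hour compound exposure of cells in 96-well plates, five concentrations, linear interpolation of endpoints. GI50 marks 50% less growth.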 Activity calls are given as the source filed them. No stated cut-off is given here; in the data, active = GI50 up to about 1.1 µM and inactive = higher.

Columns and labels:
Test in all cases: DTP human tumour cell line panel, 48 h
786-0 = tested on: 786-0
A498 = tested on: A498
A549 = tested on: A549
ACHN = tested on: ACHN
CAKI-1 = tested on: CAKI-1
CCRF-CEM = tested on: CCRF-CEM
COLO 205 = tested on: COLO 205
DMS-114 = tested on: DMS-114
DMS-273 = tested on: DMS-273
EKVX = tested on: EKVX
HCC 2998 = tested on: HCC 2998
HCT-116 = tested on: HCT-116
HCT-15 = tested on: HCT-15
HL-60 = tested on: HL-60
HOP-18 = tested on: HOP-18
HOP-62 = tested on: HOP-62
HOP-92 = tested on: HOP-92
HT-29 = tested on: HT-29
IGROV-1 = tested on: IGROV-1
K562 = tested on: K562
KM-20L2 = tested on: KM-20L2
LOX IMVI = tested on: LOX IMVI
LXFL 529 = tested on: LXFL 529
M14 = tested on: M14
M19-MEL = tested on: M19-MEL
MOLT-4 = tested on: MOLT-4
Malme-3M = tested on: Malme-3M
NCI-H23 = tested on: NCI-H23
NCI-H460 = tested on: NCI-H460
NCI-H522 = tested on: NCI-H522
OVCAR-4 = tested on: OVCAR-4
OVCAR-5 = tested on: OVCAR-5
OVCAR-8 = tested on: OVCAR-8
RPMI-8226 = tested on: RPMI-8226
RXF 393 = tested on: RXF 393
SF-268 = tested on: SF-268
SK-MEL-28 = tested on: SK-MEL-28
SK-MEL-2 = tested on: SK-MEL-2
SK-MEL-5 = tested on: SK-MEL-5
SK-OV-3 = tested on: SK-OV-3
SN12C = tested on: SN12C
SNB-19 = tested on: SNB-19
SNB-75 = tested on: SNB-75
SR = tested on: SR
SW-620 = tested on: SW-620
TK-10 = tested on: TK-10
U-251 = tested on: U-251
UACC-257 = tested on: UACC-257
UACC-62 = tested on: UACC-62
UO-31 = tested on: UO-31
XF498 = tested on: XF498
DLD-1 = tested on: DLD-1
KM12 = tested on: KM12
NCI-H226 = tested on: NCI-H226
OVCAR-3 = tested on: OVCAR-3
SF-295 = tested on: SF-295
SF-539 = tested on: SF-539
SNB-78 = tested on: SNB-78
MCF7 = tested on: MCF7
NCI/ADR-RES = tested on: NCI/ADR-RES

In the case of COC(=O)CC1C(=O)OCc2c1cc1n(c2=O)Cc2c-1nc1ccccc1c2OC (stereo not drawn), the GI50 (786-0) is reported as 37.3 µM (inactive), the GI50 (A498) is reported as > 100 µM (inactive) and the GI50 (A549) is reported as 59.8 µM (inactive). The GI50 (ACHN) was 23.6 µM (inactive), the GI50 (CAKI-1) was 4.51 µM (inactive) and the GI50 (CCRF-CEM) was 6 µM (inactive). For the same molecule, the GI50 (COLO 205) was > 100 µM (inactive), the GI50 (DMS-114) was 34.3 µM (inactive) and the GI50 (DMS-273) was 12.7 µM (inactive). For the same molecule, the GI50 (EKVX) was > 100 µM (inactive), the GI50 (HCC 2998) was > 100 µM (inactive) and the GI50 (HCT-116) was 13.4 µM (inactive). For the same molecule, the GI50 (HCT-15) was over 100 µM, the GI50 (HL-60) was 18.5 µM (inactive) and the GI50 (HOP-18) was 64.7 µM (inactive). The GI50 (HOP-62) was 11 µM (inactive), the GI50 (HOP-92) was 20.7 µM (inactive) and the GI50 (HT-29) was > 100 µM (inactive). For the same molecule, the GI50 (IGROV-1) was > 100 µM (inactive), the GI50 (K562) was 84.1 µM (inactive) and the GI50 (KM-20L2) was > 100 µM (inactive). For the same molecule, the GI50 (LOX IMVI) was 22.5 µM (inactive), the GI50 (LXFL 529) was > 100 µM (inactive) and the GI50 (M14) was 18 µM (inactive). For the same molecule, the GI50 (M19-MEL) was 69.7 µM (inactive), the GI50 (MOLT-4) was 3.93 µM (inactive) and the GI50 (Malme-3M) was > 100 µM (inactive). For the same molecule, the GI50 (NCI-H23) was 17.3 µM (inactive), the GI50 (NCI-H460) was 4.16 µM (inactive) and the GI50 (NCI-H522) was 25.8 µM (inactive). For the same molecule, the GI50 (OVCAR-4) was > 100 µM (inactive), the GI50 (OVCAR-5) was 58.9 µM (inactive) and the GI50 (OVCAR-8) was > 100 µM (inactive). For the same molecule, the GI50 (RPMI-8226) was > 100 µM (inactive), the GI50 (RXF 393) was 17.5 µM (inactive) and the GI50 (SF-268) was 19.3 µM (inactive). For the same molecule, the GI50 (SK-MEL-28) was > 100 µM (inactive), the GI50 (SK-MEL-2) was > 100 µM (inactive) and the GI50 (SK-MEL-5) was 61.1 µM (inactive). For the same molecule, the GI50 (SK-OV-3) was 54.5 µM (inactive), the GI50 (SN12C) was 41.4 µM (inactive) and the GI50 (SNB-19) was 37 µM (inactive). For the same molecule, the GI50 (SNB-75) was 6.53 µM (inactive), the GI50 (SR) was 6.05 µM (inactive) and the GI50 (SW-620) was > 100 µM (inactive). The GI50 (TK-10) was > 100 µM (inactive), the GI50 (U-251) was 68.9 µM (inactive) and the GI50 (UACC-257) was > 100 µM (inactive). For the same molecule, the GI50 (UACC-62) was 19.7 µM (inactive), the GI50 (UO-31) was 16.3 µM (inactive) and the GI50 (XF498) was > 100 µM (inactive).
CCCCCOCC(O)CO (stereo not drawn) was tested, and the GI50 (786-0) was > 100 µM (inactive), the GI50 (A498) was > 100 µM (inactive) and the GI50 (A549) was > 100 µM (inactive). For the same molecule, the GI50 (ACHN) was > 100 µM (inactive), the GI50 (CAKI-1) was > 100 µM (inactive) and the GI50 (COLO 205) was > 100 µM (inactive). For the same molecule, the GI50 (DLD-1) was > 100 µM (inactive), the GI50 (DMS-114) was > 100 µM (inactive) and the GI50 (DMS-273) was > 100 µM (inactive). For the same molecule, the GI50 (EKVX) was > 100 µM (inactive), the GI50 (HCT-116) was > 100 µM (inactive) and the GI50 (HCT-15) was over 100 µM. For the same molecule, the GI50 (HOP-18) was > 100 µM (inactive), the GI50 (HOP-62) was > 100 µM (inactive) and the GI50 (HOP-92) was > 100 µM (inactive). The GI50 (IGROV-1) was > 100 µM (inactive), the GI50 (KM-20L2) was > 100 µM (inactive) and the GI50 (KM12) was > 100 µM (inactive). The GI50 (LOX IMVI) was > 100 µM (inactive), the GI50 (Malme-3M) was > 100 µM (inactive) and the GI50 (NCI-H226) was > 100 µM (inactive). For the same molecule, the GI50 (NCI-H23) was > 100 µM (inactive), the GI50 (NCI-H460) was > 100 µM (inactive) and the GI50 (OVCAR-3) was > 100 µM (inactive). For the same molecule, the GI50 (OVCAR-4) was > 100 µM (inactive), the GI50 (OVCAR-5) was > 100 µM (inactive) and the GI50 (OVCAR-8) was > 100 µM (inactive). For the same molecule, the GI50 (RXF 393) was > 100 µM (inactive), the GI50 (SF-268) was > 100 µM (inactive) and the GI50 (SF-295) was > 100 µM (inactive). The GI50 (SF-539) was > 100 µM (inactive), the GI50 (SK-MEL-28) was > 100 µM (inactive) and the GI50 (SK-MEL-2) was > 100 µM (inactive). The GI50 (SK-MEL-5) was > 100 µM (inactive), the GI50 (SN12C) was > 100 µM (inactive) and the GI50 (SNB-19) was > 100 µM (inactive). For the same molecule, the GI50 (SNB-78) was > 100 µM (inactive), the GI50 (SW-620) was > 100 µM (inactive) and the GI50 (TK-10) was > 100 µM (inactive). The GI50 (U-251) was > 100 µM (inactive), the GI50 (UACC-257) was > 100 µM (inactive) and the GI50 (UACC-62) was > 100 µM (inactive). The GI50 (XF498) was 44.6 µM (inactive).
In the case of CCN1CCCC(NCc2c3ccccc3c(CNC3CCCN(CC)C3)c3ccccc23)C1 (stereo not drawn), the GI50 (A498) is reported as 12.6 µM (inactive), the GI50 (A549) is reported as > 48 µM (inactive) and the GI50 (CAKI-1) is reported as 16.1 µM (inactive). For the same molecule, the GI50 (CCRF-CEM) was 3.34 µM (inactive), the GI50 (COLO 205) was 1.99 µM (inactive) and the GI50 (DLD-1) was 12.8 µM (inactive). The GI50 (DMS-114) was 4.99 µM (inactive), the GI50 (DMS-273) was 5.56 µM (inactive) and the GI50 (EKVX) was 17.3 µM (inactive). The GI50 (HCC 2998) was 13.1 µM (inactive), the GI50 (HCT-116) was 4.5 µM (inactive) and the GI50 (HCT-15) was 12.5 µM. For the same molecule, the GI50 (HL-60) was 7.03 µM (inactive), the GI50 (HOP-18) was 5.92 µM (inactive) and the GI50 (HOP-62) was 19.6 µM (inactive). For the same molecule, the GI50 (HOP-92) was 11.1 µM (inactive), the GI50 (HT-29) was 2.6 µM (inactive) and the GI50 (IGROV-1) was 16.2 µM (inactive). For the same molecule, the GI50 (K562) was 7.85 µM (inactive), the GI50 (KM-20L2) was 3.76 µM (inactive) and the GI50 (KM12) was 5.45 µM (inactive). The GI50 (LOX IMVI) was 6.37 µM (inactive), the GI50 (M19-MEL) was 7.45 µM (inactive) and the GI50 (MCF7) was 2.86 µM (inactive). For the same molecule, the GI50 (MOLT-4) was 3.18 µM (inactive), the GI50 (Malme-3M) was 21.6 µM (inactive) and the GI50 (NCI-H226) was 13.4 µM (inactive). For the same molecule, the GI50 (NCI-H23) was 15.6 µM (inactive), the GI50 (NCI-H460) was 3.65 µM (inactive) and the GI50 (NCI-H522) was 2.49 µM (inactive). The GI50 (NCI/ADR-RES) was 25 µM (inactive), the GI50 (OVCAR-3) was 3.8 µM (inactive) and the GI50 (OVCAR-4) was 5.2 µM (inactive). For the same molecule, the GI50 (OVCAR-5) was 5.96 µM (inactive), the GI50 (OVCAR-8) was > 33.7 µM (inactive) and the GI50 (RPMI-8226) was 10.2 µM (inactive). For the same molecule, the GI50 (RXF 393) was 3.48 µM (inactive), the GI50 (SF-268) was 7.8 µM (inactive) and the GI50 (SF-295) was 4.67 µM (inactive). For the same molecule, the GI50 (SF-539) was 14.9 µM (inactive), the GI50 (SK-MEL-28) was 11.8 µM (inactive) and the GI50 (SK-MEL-2) was 5.16 µM (inactive). The GI50 (SK-MEL-5) was 14.1 µM (inactive), the GI50 (SK-OV-3) was 10.1 µM (inactive) and the GI50 (SN12C) was 8.91 µM (inactive). For the same molecule, the GI50 (SNB-19) was 11.1 µM (inactive), the GI50 (SNB-75) was 7.98 µM (inactive) and the GI50 (SNB-78) was 22.3 µM (inactive). The GI50 (SW-620) was 4.04 µM (inactive), the GI50 (U-251) was 11.8 µM (inactive) and the GI50 (UACC-257) was 10.9 µM (inactive). The GI50 (UACC-62) was 12.9 µM (inactive), the GI50 (UO-31) was 24.8 µM (inactive) and the GI50 (XF498) was 20.5 µM (inactive).
